What was measured:
Type in all cases: physicochemical
[1] = Thermogravimetric analysis (TGA) of Form I, dehydration; details: under nitrogen purge, 10° C./min
Description: Thermogravimetric analysis (TGA) data was obtained using 2.01 mg PMPA Form I and was heated at a rate of 10° C./min over the range of 25 to 350° C. The solids lost about 6.1% water below 100° C., and the loss is very close to the theoretical water content of 5.9% for PMPA monohydrate.

[2] = XRPD patterns during heating (70, 80, 90° C.), form transition; details: XRPD patterns at 70, 80, and 90° C. during the heating period
[3] = Storage of Form IV in a sealed vial, checked by XRPD; details: kept in a sealed vial at ambient temperature
Text: Form IV was obtained by keeping Form VI in water at ambient temperature for 3 weeks.

Row | SMILES | dehydration temperature (TGA) [1] | transition from monohydrate (Form I) to an anhydrous form [2] | change of sample by XRPD analysis on storage [3]
1 | C[C@H](Cn1cnc2c(N)ncnc21)OCP(=O)(O)O [Form I, (R)-9-[2-(phosphonomethoxy)propyl]adenine] | about 50 °C | around 80 °C | –
2 | C[C@H](Cn1cnc2c(N)ncnc21)OCP(=O)(O)O [Form IV, (R)-9-[2-(phosphonomethoxy)propyl]adenine] | – | – | did not change

From patent US9487546B2, “Solid forms of tenofovir” (Gilead Sciences, Inc., priority 2014, dated 2016)
